Results: PMC8400955 (Pharmaceuticals, 2021)
Several values for one entry are separate records, joined by “and”; a condition that tells them apart may be missing. Equal entries are not always repeated.

Legend:
[1] = Single-dose PK and bioavailability in dogs; assay type: in vivo; conditions: beagle, dog, plasma; for bioavailability: PO 6 mg/kg/day vs IV 2 mg/kg/day; for AUC(0-t) / Cmax / Tmax: single dose
Protocol: […] […] All groups had one male and one female animal. Plasma samples were collected at various timepoints, through to 24 h post-dose, and analyzed for ZB716.
(§1) Four-to-six-week-old Sprague Dawley rats (Crl: CD (SD)) (SPF/VAF) were purchased from Beijing Vital River Laboratory Animal Technology, Co. Ltd.). Six-month-old beagle dogs were purchased from Beijing Marshall Biotechnology Co. Ltd. Animals were quarantined/acclimated for 2–6 weeks prior to dose initiation. Both Sprague Dawley rats and beagle dogs were given oral administration of ZB716 (20% PG, 5% Solutol, and 75% of 40% HP-β-CD in water) at different dose levels. After treatment with the test articles, whole blood was collected from each study animal by puncture of the tail vein (0.4 mL of whole blood from rats) and/or the peripheral vein (0.6 mL of whole blood from dogs) into tubes containing K2EDTA at each timepoint: pre-dose, and 0.5, 1, 2, 4, 8, and 24 h post-dose. The plasma samples were divided into 2 aliquots (approximately equal in volume) and stored frozen at −75 ± 15 °C within 2 h of the collection until analysis at Pharmaron, China.
(§2) The stock solution of ZB716 (5.0 mg/mL) and ZB716-d6 (1 mg/mL) in ACN:DI Water = 1:1 was prepared and stored at −20 ± 5 °C. The desired serial concentrations of working reference analyte solutions were achieved by diluting a stock analyte solution with 50% acetonitrile (0.1% formic acid) in water solution. The bioanalytical LC–MS/MS method was validated for quantitative determination of ZB716 in Sprague Dawley rat plasma and beagle dog plasma, with acceptable selectivity, sensitivity, calibration curve, precision, and accuracy. This method is applicable for the determination of ZB716 in Sprague Dawley rat plasma and beagle dog plasma, with a lower limit of quantification of 20.0 ng/mL, and an upper limit of quantification of 10,000 ng/mL.
(§3) Five microliters of diluted supernatant was injected into the LC–MS/MS system (Shimadzu LC30AD HPLC system with a SynergiTM 4 μm Fusion-RP 80 Å (50 × 2 mm) column using gradient elution and a Triple Quad 5500 mass spectrometer) for quantitative analysis. The mobile phases used were 0.1% formic acid in deionized water and 0.1% formic acid in acetonitrile. The pharmacokinetic parameters T1/2 (the biological half-life), Cmax (maximal concentration), Tmax (time at which Cmax is observed), and AUC (area under the plasma concentration–time curve) were calculated from the plasma concentration versus time data using WinNonlin (Phoenix^TM, version 8.1, Mountain View, CA, USA). All PK studies were conducted by Pharmaron in Beijing, China.

CYP2C19 = CYP2C19 (Homo sapiens, UniProt P33261); assay: CYP phenotyping, recombinant CYP2C19
Chain of CYP2C19 (P33261 whole entry): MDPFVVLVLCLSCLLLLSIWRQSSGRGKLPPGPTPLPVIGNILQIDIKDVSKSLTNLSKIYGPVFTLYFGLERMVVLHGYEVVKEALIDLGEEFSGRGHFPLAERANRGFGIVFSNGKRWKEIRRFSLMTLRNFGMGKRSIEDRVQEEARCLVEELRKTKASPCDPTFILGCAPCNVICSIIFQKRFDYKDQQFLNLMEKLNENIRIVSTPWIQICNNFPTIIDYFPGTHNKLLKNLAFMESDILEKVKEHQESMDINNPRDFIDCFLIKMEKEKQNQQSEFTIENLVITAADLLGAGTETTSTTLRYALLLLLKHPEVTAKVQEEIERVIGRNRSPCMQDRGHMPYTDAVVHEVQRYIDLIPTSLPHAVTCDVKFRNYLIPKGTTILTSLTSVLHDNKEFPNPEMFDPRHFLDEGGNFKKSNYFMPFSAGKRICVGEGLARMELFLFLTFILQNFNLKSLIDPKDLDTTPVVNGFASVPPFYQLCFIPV

CYP3A4 = CYP3A4 (Homo sapiens, UniProt P08684); assay: CYP phenotyping, recombinant CYP3A4
Chain of CYP3A4 (P08684 whole entry): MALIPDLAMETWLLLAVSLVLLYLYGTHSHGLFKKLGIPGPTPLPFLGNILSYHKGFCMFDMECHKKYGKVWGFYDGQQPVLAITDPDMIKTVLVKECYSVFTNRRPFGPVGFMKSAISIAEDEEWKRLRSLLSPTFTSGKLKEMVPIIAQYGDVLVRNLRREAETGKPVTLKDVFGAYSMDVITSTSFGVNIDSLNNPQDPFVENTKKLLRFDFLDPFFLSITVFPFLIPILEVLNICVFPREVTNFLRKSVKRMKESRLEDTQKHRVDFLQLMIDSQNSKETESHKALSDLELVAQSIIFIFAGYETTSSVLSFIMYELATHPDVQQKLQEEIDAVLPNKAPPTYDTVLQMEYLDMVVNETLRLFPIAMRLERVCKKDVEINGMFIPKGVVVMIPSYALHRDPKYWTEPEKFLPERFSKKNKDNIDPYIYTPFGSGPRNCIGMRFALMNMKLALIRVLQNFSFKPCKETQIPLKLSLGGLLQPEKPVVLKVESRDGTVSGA

[2] = Metabolic stability in rat hepatocytes; assay type: in vitro ADME
Protocol: (§4) Hepatocytes of humans (#X008001), dogs (#M00205), rats (#M00005), and mice (#M005052) were purchased from BioIVT, NY, USA. Monkey hepatocytes were procured from RILD, Shanghai, China. The metabolic stability of ZB716 in human, monkey, dog, rat and mouse hepatocytes was investigated by incubating ZB716 with human, monkey, dog, rat, and mouse hepatocytes (0.5 × 10^6 cells/mL), or with incubation medium only.
(§5) parent disappearance vs. incubation time curve.
(§6) Scaled-up Clint = kV/N × Scaling Factor
(§7) metabolite formed during the reaction.

rat hepatocytes = assay: Metabolic stability in rat hepatocytes; assay type: in vitro ADME; conditions: 1 μM
Protocol: as §4, §5, §6, §7

[3] = 4-week repeat-dose toxicity/TK study in dogs; assay type: in vivo, beagle dogs; conditions: for AUC(0-t) / Cmax / Tmax: beagle, dog, plasma, po
Protocol: The TK of ZB716 was investigated in a 4-week repeat-dose toxicity study in dogs. Groups of dogs (n = 3/sex/group) were orally administered ZB716 (5% EtOH, 15% PG, 5% Solutol, and 75% of 40% HP-β-CD in DI water) at dose levels of 25, 100, and 200 mg/kg/day for 4 weeks. The plasma concentration of ZB716 was measured at various times up through to 24 h post-dose on days 1 and 28. […] The lower exposure in females given 200 mg/kg/day on day 1 was likely due to emesis noted in all females in this group.
as §1, §2, §3

[4] = female, 25 mg/kg/day, day 1, PO 25 mg/kg/day, F
[5] = female, 25 mg/kg/day, day 28, PO 25 mg/kg/day, F
[6] = female, 100 mg/kg/day, day 1, PO 100 mg/kg/day, F
[7] = female, 100 mg/kg/day, day 28, PO 100 mg/kg/day, F
[8] = female, 200 mg/kg/day, day 1, PO 200 mg/kg/day, F
[9] = female, 200 mg/kg/day, day 28, PO 200 mg/kg/day, F
[10] = male, 25 mg/kg/day, day 1, PO 25 mg/kg/day, M
[11] = male, 25 mg/kg/day, day 28, PO 25 mg/kg/day, M
[12] = male, 100 mg/kg/day, day 1, PO 100 mg/kg/day, M
[13] = male, 100 mg/kg/day, day 28, PO 100 mg/kg/day, M
[14] = male, 200 mg/kg/day, day 1, PO 200 mg/kg/day, M
[15] = male, 200 mg/kg/day, day 28, PO 200 mg/kg/day, M

For `C[C@]12CC[C@@H]3c4ccc(B(O)O)cc4C[C@@H](CCCCCCCCC[S+]([O-])CCCC(F)(F)C(F)(F)F)[C@H]3[C@@H]1CC[C@@H]2O` (some centres unmarked) [ZB716, fulvestrant-3-boronic acid], which bioavailability ([1]; female, F) is on record?
The bioavailability was 6.74%.

And the AUC(0-t) ([1]; female, IV 2 mg/kg/day, F)?
Its AUC(0-t) is 4310 ng·h/mL.

And the Cmax ([1]; female, IV 2 mg/kg/day, F)?
Its Cmax is 2710 ng/mL.

What about the Tmax ([1]; female, IV 2 mg/kg/day, F) of the same compound?
Its Tmax is 0.0833 h.

And the AUC(0-t) ([1]; female, PO 6 mg/kg/day, F)?
The AUC(0-t) was 872 ng·h/mL.

What about the Cmax ([1]; female, PO 6 mg/kg/day, F) of the same compound?
The Cmax was 213 ng/mL.

And the Tmax ([1]; female, PO 6 mg/kg/day, F)?
Its Tmax is 0.5 h.

And the AUC(0-t) ([1]; female, PO 30 mg/kg/day, F)?
The AUC(0-t) was 3460 ng·h/mL.

And the Cmax ([1]; female, PO 30 mg/kg/day, F)?
The Cmax was 964 ng/mL.

And the Tmax ([1]; female, PO 30 mg/kg/day, F)?
Its Tmax is 1 h.

What about the AUC(0-t) ([1]; female, PO 100 mg/kg/day, F) of the same compound?
Its AUC(0-t) is 5840 ng·h/mL.

And the Cmax ([1]; female, PO 100 mg/kg/day, F)?
Its Cmax is 957 ng/mL.

What about the Tmax ([1]; female, PO 100 mg/kg/day, F) of the same compound?
The Tmax was 0.5 h.

What about the bioavailability ([1]; male, M) of the same compound?
The bioavailability was 6.18%.

What about the AUC(0-t) ([1]; male, IV 2 mg/kg/day, M) of the same compound?
The AUC(0-t) was 3030 ng·h/mL.

What about the Cmax ([1]; male, IV 2 mg/kg/day, M) of the same compound?
The Cmax was 2160 ng/mL.

And the Tmax ([1]; male, IV 2 mg/kg/day, M)?
Its Tmax is 0.0833 h.

And the AUC(0-t) ([1]; male, PO 6 mg/kg/day, M)?
Its AUC(0-t) is 563 ng·h/mL.

And the Cmax ([1]; male, PO 6 mg/kg/day, M)?
Its Cmax is 157 ng/mL.

And the Tmax ([1]; male, PO 6 mg/kg/day, M)?
The Tmax was 0.5 h.

And the AUC(0-t) ([1]; male, PO 30 mg/kg/day, M)?
The AUC(0-t) was 5520 ng·h/mL.

What about the Cmax ([1]; male, PO 30 mg/kg/day, M) of the same compound?
Its Cmax is 988 ng/mL.

What about the Tmax ([1]; male, PO 30 mg/kg/day, M) of the same compound?
The Tmax was 4 h.

And the AUC(0-t) ([1]; male, PO 100 mg/kg/day, M)?
The AUC(0-t) was 7500 ng·h/mL.

What about the Cmax ([1]; male, PO 100 mg/kg/day, M) of the same compound?
The Cmax was 1140 ng/mL.

What about the Tmax ([1]; male, PO 100 mg/kg/day, M) of the same compound?
Its Tmax is 2 h.

What about the half-life at 2 µM (CYP2C19; human) of the same compound?
The half-life at 2 µM was 0.36 ± 0.0333 h.

What about the Clint (CYP2C19; recombinant CYP2C19, 2 µM ZB716) of the same compound?
Its Clint is 0.646 ± 0.063 µL/min/pmol CYP.

What about the half-life at 2 µM (CYP3A4; human) of the same compound?
The half-life at 2 µM was 5.91 ± 0.39 min.

And the Clint (CYP3A4; recombinant CYP3A4, 2 µM ZB716)?
Its Clint is 2.35 µL/min/pmol CYP and 2.35 ± 0.15 µL/min/pmol CYP.

And the half-life at 1 μM ([2]; read-out: Estimated In Vitro t1/2)?
The half-life at 1 μM was 0.473 ± 0.015 h.

What about the hepatocyte CLint at 1 μM ([2]; read-out: In Vitro Clint) of the same compound?
Its hepatocyte CLint at 1 μM is 48.7 ± 1.5 µL/min/1e6 cells.

What about the CLint scaled at 1 μM ([2]; read-out: Scaled-Up Clint) of the same compound?
Its CLint scaled at 1 μM is 228 ± 7 mL/min/kg.

What about the “Remaining at 120 min” value (rat hepatocytes) of the same compound?
The value was 5.19 ± 0.32%.

What about the AUC(0-t) [3, 4] of the same compound?
The AUC(0-t) was 3880 ng·h/mL.

And the Cmax [3, 4]?
Its Cmax is 772 ng/mL.

And the Tmax [3, 4]?
Its Tmax is 1 h.

And the AUC(0-t) [3, 5]?
The AUC(0-t) was 8000 ng·h/mL.

What about the Cmax [3, 5] of the same compound?
The Cmax was 1590 ng/mL.

What about the Tmax [3, 5] of the same compound?
Its Tmax is 1 h.

What about the AUC(0-t) [3, 6] of the same compound?
The AUC(0-t) was 4490 ng·h/mL.

And the Cmax [3, 6]?
Its Cmax is 997 ng/mL.

What about the Tmax [3, 6] of the same compound?
The Tmax was 1 h.

And the AUC(0-t) [3, 7]?
The AUC(0-t) was 9650 ng·h/mL.

What about the Cmax [3, 7] of the same compound?
The Cmax was 1870 ng/mL.

And the Tmax [3, 7]?
Its Tmax is 2 h.

What about the AUC(0-t) [3, 8] of the same compound?
The AUC(0-t) was 2720 ng·h/mL.

And the Cmax [3, 8]?
The Cmax was 583 ng/mL.

What about the Tmax [3, 8] of the same compound?
Its Tmax is 2 h.

What about the AUC(0-t) [3, 9] of the same compound?
The AUC(0-t) was 14900 ng·h/mL.

And the Cmax [3, 9]?
Its Cmax is 1810 ng/mL.

And the Tmax [3, 9]?
The Tmax was 2 h.

What about the AUC(0-t) [3, 10] of the same compound?
Its AUC(0-t) is 1980 ng·h/mL.

What about the Cmax [3, 10] of the same compound?
Its Cmax is 691 ng/mL.

And the Tmax [3, 10]?
The Tmax was 0.5 h.

What about the AUC(0-t) [3, 11] of the same compound?
The AUC(0-t) was 4330 ng·h/mL.

And the Cmax [3, 11]?
Its Cmax is 1390 ng/mL.

What about the Tmax [3, 11] of the same compound?
The Tmax was 1 h.

What about the AUC(0-t) [3, 12] of the same compound?
Its AUC(0-t) is 4570 ng·h/mL.

And the Cmax [3, 12]?
The Cmax was 1400 ng/mL.

What about the Tmax [3, 12] of the same compound?
The Tmax was 1 h.

And the AUC(0-t) [3, 13]?
The AUC(0-t) was 12400 ng·h/mL.

And the Cmax [3, 13]?
The Cmax was 3340 ng/mL.

What about the Tmax [3, 13] of the same compound?
The Tmax was 2 h.

And the AUC(0-t) [3, 14]?
Its AUC(0-t) is 7880 ng·h/mL.

What about the Cmax [3, 14] of the same compound?
Its Cmax is 1040 ng/mL.

And the Tmax [3, 14]?
The Tmax was 2 h.

What about the AUC(0-t) [3, 15] of the same compound?
Its AUC(0-t) is 11000 ng·h/mL.

And the Cmax [3, 15]?
The Cmax was 2130 ng/mL.

And the Tmax [3, 15]?
The Tmax was 2 h.

What about the tolerability ([3]; oral once daily, doses up to 200 mg/kg/day for 28 consecutive days) of the same compound?
Its tolerability is “tolerated”.
